Results on 1 molecule are retold here after patent publication US20220184003A1, “Formulations of Cannabidiol Derivatives and Their Use as Modulators of Cannabinoid Receptor Type 2 (CB2)” (EMERALD HEALTH PHARMACEUTICALS INC, priority 2019, published 2022).

As usually defined, the logD is the decadic logarithm of the distribution of all forms, ionised or not, between an organic phase and buffer at a given pH. High values mean higher lipophilicity, low ones lower lipophilicity.

This data set in a line: Log D determination (octanol / phosphate buffer pH 7.4). Conditions: octanol / 0.1 M phosphate buffer pH 7.4, pH 7.4. An excerpt:
Lipophilicity is a key determinant of the PK behavior of drugs. It can influence distribution into tissues, absorption and the binding characteristics of a drug, as well as being an important factor in determining the solubility of a compound. Log D (distribution co-efficient) is used as a measure of lipophilicity.
The solution was transferred to tubes, centrifuged and the supernatant is drawn off the top, leaving any solid compound in the bottom. This supernatant was then syringe filtered through 0.2 μm filters to produce the initial solution. Three vials were prepared containing values. […] The vials were mixed to equilibrium, then centrifuged to ensure the two phases were fully separated before the octanol was removed and the buffer samples analyzed. For the quantitative analysis, the aqueous solutions were analyzed by LC MS/MS. The amount of VCE-004.8 in each vial was quantified against a 6 points standard curve which was produced by serially diluting the initial solution. Log D was calculated using the equation, shown in FIG. 7, wherein ConcINITlAL is a concentration of compound in the initial aqueous solution, ConcFINAL is a concentration of compound in final aqueous phase, Vaq is a volume of aqueous phase, and Voct is a volume of octanol phase.

The molecule `C=C(C)[C@@H]1CCC(C)=C[C@H]1c1c(O)cc(CCCCC)cc1O` [CBD, cannabidiol] had a logD of 5.44.
